Where two headings read alike, the source gives them in different places. Each block holds one compound with its values, some of them ahead of it.
Key:
[1] = test system: NO production in injured bovine cartilage explants; assay: Drop tower model: NO production in injured cartilage explants; type: cell-based; details: for inhibition at 10 µM: Bos taurus, injured cartilage explants; for effect on NO production (in words): drop tower model, cocktail of cytokines
Experimental: (§1) In the second method, the explants were cultured at 37° C., 5% CO2 either in stimulated or non-stimulated conditioned medium as described above or in defined medium containing DMEM supplemented with 1% FCS, 1× insulin-transferrin-sodium selenite media supplement and Antibiotics-Antimycotics in the presence or absence of a cocktail of cytokines containing 10 ng/ml of IL-1β, 100 ng/ml of TNFα and 5 ng/ml of IFN-γ. The compounds were solubilized in H2O, Ethanol or DMSO (10^−2 M) according to suppliers' instructions and further diluted with either conditioned medium stimulated with or without LPS to the required concentrations. DMSO concentrations in the culture media never exceeded 1%. This concentration of DMSO has no effect on cartilage proteoglycan metabolism in response to cytokines. The injured and noninjured cartilage explants were treated with compound-containing medium for three to five days. The specimens were first treated with compounds at desired concentrations at 37° C. for one hour and then incubated for three to five days in the absence or presence of the cocktail of cytokines. At the end of the incubation, media and cartilage samples were harvested and frozen for further analysis.
Nitrate/Nitrite was measured using the Griess reaction (Green L. C. et al., “Analysis of Nitrate, Nitrite, and [15N]nitrate in Biological Fluids,” Anal. Biochem. 126: 131-138 (1982)) with a Nitrate/Nitrite Colorimetric Assay Kit (Cayman Chemicals), as described in Example III above.

[2] = test system: PGE2 synthesis in injured bovine cartilage explants; assay: Drop tower model: PGE2 synthesis in injured cartilage explants; type: cell-based; details: for inhibition at 1 µM / inhibition at 10 µM: Bos taurus, injured cartilage explants; for effect on PGE2 synthesis (in words): drop tower model, cocktail of cytokines
Experimental: as §1
PGE2 was measured with STAT-Prostaglandin E2 EIA ELISA kit (Cayman Biochemicals), as described in Example III above. The antibody-PGE2 complex binds to a goat polyclonal anti-mouse IgG that has been previously attached to the well. After washing to remove any unbound reagents, para-nitrophenyl phosphate (pNPP) was added to the well. The product of this enzymatic reaction absorbs strongly at 412 nm. Because of the large range in response to IL-1β and other cytokines, PGE2 values were converted to log scale prior to doing t-tests.

[3] = test system: injured bovine cartilage explants
Source text: Bovine articular cartilage was obtained from the knee joints of adult, eighteen to twenty-four month old animals and processed within twenty-four hours after sacrifice. […] Care was taken to consistently prepare the same thickness of bone layer. The cartilage-on-bone specimens were subjected to an impact. […] After each impact, the cartilage area with a visible indent of ˜0.5-1 mm in the center was punched out with a 3 mm diameter puncher and immediately soaked in PBS with 1× Antibiotic-Antimycotic. Throughout the impact procedure and preparation of specimens, the cartilage was kept moist using PBS to prevent tissue dehydration. The cartilage discs were sterilized through 3× one hour wash in PBS with 10× Antibiotic-Antimycotic followed by 1×0.5 hour wash in PBS with 1× Antibiotic-Antimycotic. After wash, the specimens were incubated with conditioned medium harvested from peripheral blood mononuclear cells (PBMC) stimulated with or without LPS and at the same time, were treated with or without compounds for five days at 37° C., 5% CO2. Culture medium was collected for GAG release, NO and PGE2 assays, and assessment for cytotoxicity.
Cell death was assessed by measuring the amount of lactate dehydrogenase (LDH) in the culture supernatant. 10-20 μl of culture medium was incubated with the reaction mixture from the Cytotoxicity Detection Kit (LDH, Roche), as described in Example III above. The amount of formazan formed was measured at 500 nm, which was proportional to the number of dead cells. Since no purified LDH was available for a standard curve at each measurement, an LDH level for 100% dead cells was measured in each experiment. The lysate for the dead cells was prepared as follows: Chondrocytes were enzymatically isolated as described earlier and about 0.1 million cells that were equivalent to the number of cells contained in a 3-mm punch of fresh cartilage explant were lysed in 1 ml of PBS with 1% Triton-100. Approximately 10-20 μl of the lysate was used in the assay as killed cell control. […]

[4] = test system: TNFα in human whole blood; assay: TNFα inhibition, human whole blood assay (h-WBA / HWB); type: cell-based
[5] = Monkey PK; details: in vivo, female monkey
[6] = test system: 6 CYP450; assay: Inhibition of 6 CYP450; type: in vitro ADME
[7] = Rat PK; type: in vivo
[8] = Water solubility; type: physicochemical
[9] = test system: LPS-induced IL-1 in hPBMC; assay: LPS-induced IL-1 in hPBMC; type: cell-based, human; details: read-out: inhibitor of LPS-induced IL-1 in hPBMC, IC50
[10] = biological target: COX1 (Homo sapiens, UniProt P23219); assay: COX1 inhibition; type: biochemical; details: read-out: inhibitor of COX1, IC50
[11] = biological target: p38α MAP kinase (h-p38α) (Homo sapiens, UniProt Q16539); assay: p38α MAP kinase inhibition (direct enzyme assay); type: biochemical; details: read-out: inhibitor of p38a MAP kinase, IC50
[12] = biological target: inactivated p38 MAP kinase (Homo sapiens, UniProt Q16539); assay: Binding to inactivated p38 MAP kinase; details: read-out: binds to inactivated p38 MAP kinase, Kd
[13] = test system: LPS-induced TNF in human peripheral blood mononuclear cells (hPBMC); assay: LPS-induced TNF in hPBMC; type: cell-based; details: read-out: inhibitor of LPS-induced TNF hPBMC, IC50
[14] = test system: JNK; assay: JNK inhibition; type: biochemical; details: read-out: inhibitor of JNK, IC50
[15] = test system: aggrecan and collagen type 2 mRNA in bovine AF and NP cells; assay: 3D in vitro disc cell model: Taqman gene expression; type: cell-based; details: 10 ng/ml IL-1β; inhibitor 1 μM, rhGDF-5 200 ng/ml
Source text: (§2) Three-dimensional in vitro annulus fibrosis (AF) and nucleus pulposus (NP) models were established to investigate proteoglycan modulation and changes in gene expression in response to inflammatory cytokines such as interleukin-1 (e.g., IL-1β) and potential therapeutic agents such as growth and differentiation factor (GDF-5), and p38 MAP kinase inhibitors. AF and NP cells from bovine caudal discs were isolated by enzymatic digestion and seeded (2×10^6 cells/cm^2) onto Millipore CM filters coated with Collagen Type II and cultured in DMEM/20% heat-inactivated FBS, 100 ug/ml ascorbic acid and 5 ng/ml TGFβ1. […] Results were evaluated by histology (Tol. Blue staining was used to observe matrix production). Dimethylmethylene blue (DMMB) was used to detect sulphated glycosaminoglycans in a GAG/DNA assay. Taqman analysis was performed on aggrecans (AGG), collagen type 1 (col-1), collagen type 2 (col-2), and MMP 3, MMP 9 and MMP 13. In FIGS. 19A-C and 20A-C, annulus fibrosus and nucleus pulposus cells from bovine caudal discs were isolated by enzymatic digestion and seeded (2×10^6 cells/cm2) onto Millipore CM filters coated with Collagen Type II and cultured in DMEM/20% heat-inactivated FBS/100 ug/ml ascorbic acid and 5 ng/ml TGF-β1.

[16] = test system: annulus fibrosus and nucleus pulposus cells from bovine caudal discs treated with IL-1β; assay: 3D in vitro disc cell model: GAG (DMMB); type: cell-based
Source text: as §2

[17] = biological target: JNK2 (Homo sapiens, UniProt P45984); assay: JNK2 inhibition; type: biochemical; details: read-out: inhibitor of JNK2, IC50
[18] = biological target: p38a MAP kinase (Homo sapiens, UniProt Q16539); assay: Binding to p38a MAP kinase; details: read-out: binds p38a MAP kinase, Kd
[19] = biological target: CYP2C9 (Homo sapiens, UniProt P11712); assay: CYP2C9 inhibition; type: in vitro ADME
Sequence of CYP2C9 (P11712 whole entry): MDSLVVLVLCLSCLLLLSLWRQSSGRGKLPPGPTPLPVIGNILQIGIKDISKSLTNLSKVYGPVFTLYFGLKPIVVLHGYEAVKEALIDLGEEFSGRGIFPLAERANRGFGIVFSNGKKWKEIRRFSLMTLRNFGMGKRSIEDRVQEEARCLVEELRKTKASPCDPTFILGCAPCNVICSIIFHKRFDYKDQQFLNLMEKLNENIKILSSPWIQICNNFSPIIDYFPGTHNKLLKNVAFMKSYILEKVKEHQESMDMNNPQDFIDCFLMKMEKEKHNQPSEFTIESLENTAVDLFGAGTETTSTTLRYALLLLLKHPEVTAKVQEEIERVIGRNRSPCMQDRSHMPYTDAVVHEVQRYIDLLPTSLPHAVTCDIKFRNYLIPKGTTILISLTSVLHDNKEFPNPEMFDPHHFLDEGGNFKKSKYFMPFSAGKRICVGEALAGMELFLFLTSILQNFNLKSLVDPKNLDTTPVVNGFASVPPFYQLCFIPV

Sequence of COX1 (P23219 24-599): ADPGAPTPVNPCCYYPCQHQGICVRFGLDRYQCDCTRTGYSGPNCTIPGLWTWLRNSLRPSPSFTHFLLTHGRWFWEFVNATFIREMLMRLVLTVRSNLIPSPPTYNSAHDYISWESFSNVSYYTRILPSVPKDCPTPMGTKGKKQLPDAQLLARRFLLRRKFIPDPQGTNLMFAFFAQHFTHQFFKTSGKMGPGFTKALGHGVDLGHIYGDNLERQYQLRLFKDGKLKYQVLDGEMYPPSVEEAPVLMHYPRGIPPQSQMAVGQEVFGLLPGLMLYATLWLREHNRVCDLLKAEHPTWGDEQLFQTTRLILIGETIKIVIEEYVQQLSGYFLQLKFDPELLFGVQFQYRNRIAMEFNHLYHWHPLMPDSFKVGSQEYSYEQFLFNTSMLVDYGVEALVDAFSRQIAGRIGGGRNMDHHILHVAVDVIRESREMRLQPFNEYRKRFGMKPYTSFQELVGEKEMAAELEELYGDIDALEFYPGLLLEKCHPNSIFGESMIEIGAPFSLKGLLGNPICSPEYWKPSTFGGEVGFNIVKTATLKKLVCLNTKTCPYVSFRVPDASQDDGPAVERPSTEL
Sequence of p38α MAP kinase (h-p38α) (Q16539 whole entry): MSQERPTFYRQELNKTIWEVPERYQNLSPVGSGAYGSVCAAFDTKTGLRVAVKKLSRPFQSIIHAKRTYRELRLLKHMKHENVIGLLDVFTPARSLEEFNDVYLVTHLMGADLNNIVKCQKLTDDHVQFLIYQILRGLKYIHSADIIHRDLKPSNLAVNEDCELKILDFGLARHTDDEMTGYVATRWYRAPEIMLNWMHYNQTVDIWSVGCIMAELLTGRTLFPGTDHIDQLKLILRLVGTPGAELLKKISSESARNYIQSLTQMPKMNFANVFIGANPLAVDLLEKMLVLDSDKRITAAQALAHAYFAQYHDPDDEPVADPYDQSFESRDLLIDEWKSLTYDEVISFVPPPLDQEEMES
Sequence of inactivated p38 MAP kinase (Q16539 whole entry): as above
Sequence of p38a MAP kinase (Q16539 whole entry): as above
Sequence of JNK2 (P45984 whole entry, species assumed): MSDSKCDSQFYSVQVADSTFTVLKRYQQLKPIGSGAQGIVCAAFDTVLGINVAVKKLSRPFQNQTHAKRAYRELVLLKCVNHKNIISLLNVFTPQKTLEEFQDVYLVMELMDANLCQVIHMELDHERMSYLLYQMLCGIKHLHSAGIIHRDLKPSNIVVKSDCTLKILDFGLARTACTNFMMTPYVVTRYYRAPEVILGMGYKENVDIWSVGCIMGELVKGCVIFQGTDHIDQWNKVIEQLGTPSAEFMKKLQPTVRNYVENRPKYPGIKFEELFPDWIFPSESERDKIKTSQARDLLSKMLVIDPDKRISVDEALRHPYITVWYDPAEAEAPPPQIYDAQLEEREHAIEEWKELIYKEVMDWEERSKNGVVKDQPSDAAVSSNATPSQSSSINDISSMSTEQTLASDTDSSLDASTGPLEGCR

Compound: COc1ccc(-n2nc(CCC(=O)N(C)O)cc2-c2ccc(Cl)cc2)cc1 [Tepoxalin, reference compound]
- inhibition at 10 µM [1]: 100%
- inhibition at 1 µM [2]: 77%
- inhibition at 10 µM [2]: 90%

Compound: CO[C@H]1C[C@@H]2CC[C@@H](C)[C@@](O)(O2)C(=O)C(=O)N2CCCC[C@H]2C(=O)O[C@H]([C@H](C)C[C@@H]2CC[C@@H](O)[C@H](OC)C2)CC(=O)[C@H](C)/C=C(\C)[C@@H](O)[C@@H](OC)C(=O)[C@H](C)C[C@H](C)/C=C/C=C/C=C/1C [Rapamycin, reference compound]
- cytotoxicity, LDH (in words) [3]: little cytotoxicity

Compound: O=C(O)c1cc(O)c2c(c1)C(=O)c1cccc(O)c1C2=O [Rhein, reference compound]
- cytotoxicity, LDH (in words) [3]: tolerant

Compound: CC(=O)Oc1cccc2c1C(=O)c1c(OC(C)=O)cc(C(=O)O)cc1C2=O [Diacerein, reference compound]
- cytotoxicity, LDH (in words) [3]: tolerant

- EC50 ([4]; Homo sapiens, 10× diluted, read-out: inhibits TNFα h-WBA (EC50)): 1600 nM
- EC50 ([4]; Homo sapiens, Table 2, read-out: TNFα Inhibition h-WBA (EC50)): 1600 nM
- bioavailability ([5]; read-out: Monkey (F) PK, F %): 12%
- half-life ([5]; read-out: Monkey (F) PK, t1/2 (converted)): 1.3 h
- IC50 [6]: > 1000 nM
- IC50 ([6]; human, Table 2): > 1000 nM
- half-life ([7]; in vivo, female rat, read-out: Rat (F) PK, t1/2 (converted)): 1 h
- bioavailability ([7]; in vivo, male rat, read-out: Rat (M) PK, F %): 15%
- half-life ([7]; in vivo, male rat, read-out: Rat (M) PK, t1/2 (converted)): 0.5 h
Compound: C[C@@H]1CN(Cc2ccc(F)cc2)[C@@H](C)CN1C(=O)c1cc2c(C(=O)C(=O)N(C)C)cn(C)c2cc1Cl [SCIO-469 (SD 469)]
- effect on NO production (in words) [1]: inhibited
- effect on PGE2 synthesis (in words) [2]: inhibited

Compound: CC(=O)N1CCN(c2c(-c3ccncc3)c(-c3ccc(F)cc3)c(C#N)n2C)CC1 [JNJ 17089540 (RWJ 669307)]
- water solubility ([8]; of HCl salt): > 100 mg/mL
- effect on NO production (in words) [1]: dose-dependently inhibited
- IC50 [9]: 250 nM
- IC50 [10]: > 10000 nM
- IC50 [11]: 2000 nM
- Kd [12]: 100 nM
- IC50 [13]: 220 nM
- effect on PGE2 synthesis (in words) [2]: dose-dependently inhibited

- water solubility (in words) [8]: poor water solubility
- solubility ([8]; water (aqueous, simulated gastric fluid), at pH 2, read-out: solubility): > 1 mg/mL
- IC50 [10]: > 10000 nM
- IC50 ([4]; Homo sapiens, read-out: inhibitor of TNF human whole blood (HWB), IC50): 5 nM
- IC50 [11]: 1 nM
- IC50 [14]: 12 nM
Compound: C[C@H](Nc1nccc(-c2c(-c3ccc(F)cc3)nc3nc(N)ccn23)n1)c1ccccc1 [JNJ 7583979 (RWJ 351958)]

- pH at which soluble [8]: < 2
- water solubility (in words) [8]: poor water solubility
- solubility in 0.1 M HCl (in words) ([8]; 0.1 M HCl): soluble in 0.1 M HCl
- IC50 [10]: > 10000 nM
- IC50 [11]: 20 nM
- IC50 ([13]; Homo sapiens, PBMC): 4 nM
- IC50 [17]: 80 nM
- Kd [18]: 9 nM
Compound: OCCC#Cc1nc(-c2ccc(F)cc2)c(-c2ccncc2)n1CCCc1ccccc1 [JNJ 3026582 (RWJ 67657), 4-[4-(4-fluorophenyl)-1-(3-phenylpropyl)-5-(4-pyridinyl)-1H-imidazol-2-yl]-3-butyn-1-ol]
- inhibition at 10 µM [1]: 66%
- effect on NO production (in words) [1]: dose-dependently inhibited
- gene expression of Agg and Col 2 (in words) [15]: restored
- amount of GAG in the tissue (in words) ([16]; 10 ng/ml IL-1β, inhibitor 1 μM, rhGDF-5 200 ng/ml): restored
- GAG release (in words) ([16]; Example V, IL-1β-treated disc cells): prevented GAG release in a dose dependent manner
- inhibition at 1 µM [2]: 33%
- inhibition at 10 µM [2]: 90%
- effect on PGE2 synthesis (in words) [2]: dose-dependently inhibited

Compound: C[C@@H]1CN(Cc2ccc(F)cc2)[C@@H](C)CN1C(=O)c1cc2cc(C(=O)C(=O)N(C)C)[nH]c2cc1Cl [SCIO-282 (SD 282)]
- water solubility (in words) [8]: limited water solubility
- effect on NO production (in words) [1]: dose-dependently inhibited
- EC50 ([4]; 10× diluted, read-out: inhibits TNFα h-WBA (EC50)): 70 nM
- IC50 [19]: 500 nM
- effect on PGE2 synthesis (in words) [2]: dose-dependently inhibited
- Rat (F) PK, F % ([7]; female rat): 46%
